Test results from patent US20120052057A9, “METHOD FOR SELECTING RESPONDERS TO BLOCKADE OF INTEGRIN RECEPTORS” (priority 2007, published 2012).
Entries after “also recorded” stand apart in the source; their conditions may differ.

Key:
CHO-wt cells = assay: Binding of C^14-labeled integrin inhibitor to CHO-wt cells; conditions: 20 mM EDTA, 10 μM compound, listed as C^u-labeled integrin inhibitor
Protocol: (§1) The binding of C^14-labeled integrin inhibitory compound, hydrochloride salt of [4-(dimethylamino)phenyl]{[3-(4-fluorophenyl)phenyl]-sulfonyl}methylamine, was studied with CHO-wt cells and α2 integrin over expressing CHO cell clone (CHO-α2). CHO-wt cells have no collagen receptor integrins on their cell surface. Cells were fixed in 2% formaldehyde in PBS. After that cells were washed and suspended in reaction buffer (50 mM Tris-HCl pH 7.4, 5 mM MgCl2). To all samples 10 μM C^14-labeled inhibitory compound was added and the cells were incubated in the presence or absence of 20 mM EDTA for 1 h in +4° C. 20000 cells from each sample were loaded to GF/B glass microfibre filter (Whatman) and the samples were washed with 10 mL of the reaction buffer. The membranes were put to scintillation buffer (Optiphase HiSafe3, Perkin Elmer) and the activity was measured with the scintillation counter (Wallac 1415).

[1] = target: T1, α2 integrin over expressing CHO cell clone (CHO-α2) (Homo sapiens, UniProt P17301); assay: Binding of C^14-labeled integrin inhibitor to CHO-α2 cells; conditions: for binding of labeled compound in the presence of EDTA: CHO-α2 cells, 20 mM EDTA, 10 μM compound
T1 construct: expressed in transfected cells; host or cells: CHO cell clone over-expressing α2 integrin (CHO-α2)
T1 sequence (P17301 30-1181): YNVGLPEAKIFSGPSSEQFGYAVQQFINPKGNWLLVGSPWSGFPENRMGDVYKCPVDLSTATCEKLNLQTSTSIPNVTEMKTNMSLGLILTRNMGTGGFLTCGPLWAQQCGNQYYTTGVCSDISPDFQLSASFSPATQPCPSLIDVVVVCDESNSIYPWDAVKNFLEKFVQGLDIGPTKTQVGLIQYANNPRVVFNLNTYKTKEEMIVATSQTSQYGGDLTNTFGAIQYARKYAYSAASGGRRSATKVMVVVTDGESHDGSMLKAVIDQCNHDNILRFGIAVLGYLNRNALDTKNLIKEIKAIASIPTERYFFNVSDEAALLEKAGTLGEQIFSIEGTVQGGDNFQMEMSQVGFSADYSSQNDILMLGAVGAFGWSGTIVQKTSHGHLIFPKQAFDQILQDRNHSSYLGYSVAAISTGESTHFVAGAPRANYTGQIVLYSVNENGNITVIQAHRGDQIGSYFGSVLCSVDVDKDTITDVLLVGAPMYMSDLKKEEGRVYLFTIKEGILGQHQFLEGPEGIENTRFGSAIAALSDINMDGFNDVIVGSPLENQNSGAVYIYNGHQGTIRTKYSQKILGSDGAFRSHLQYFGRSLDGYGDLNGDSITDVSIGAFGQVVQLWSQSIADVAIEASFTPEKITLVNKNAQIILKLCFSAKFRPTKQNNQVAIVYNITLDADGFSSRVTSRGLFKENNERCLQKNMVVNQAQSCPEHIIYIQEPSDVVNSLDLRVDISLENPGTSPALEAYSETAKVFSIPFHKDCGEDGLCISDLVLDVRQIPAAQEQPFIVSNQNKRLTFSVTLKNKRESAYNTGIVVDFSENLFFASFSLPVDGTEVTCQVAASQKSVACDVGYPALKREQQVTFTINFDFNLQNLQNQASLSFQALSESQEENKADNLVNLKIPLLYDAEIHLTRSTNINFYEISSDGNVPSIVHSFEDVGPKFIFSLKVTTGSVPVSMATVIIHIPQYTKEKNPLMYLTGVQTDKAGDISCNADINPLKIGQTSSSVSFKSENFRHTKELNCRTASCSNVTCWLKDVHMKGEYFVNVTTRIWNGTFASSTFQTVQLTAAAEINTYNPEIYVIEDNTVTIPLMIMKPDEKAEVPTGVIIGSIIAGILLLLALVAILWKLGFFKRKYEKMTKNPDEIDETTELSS
T1 sequence (P05556 21-798 partner): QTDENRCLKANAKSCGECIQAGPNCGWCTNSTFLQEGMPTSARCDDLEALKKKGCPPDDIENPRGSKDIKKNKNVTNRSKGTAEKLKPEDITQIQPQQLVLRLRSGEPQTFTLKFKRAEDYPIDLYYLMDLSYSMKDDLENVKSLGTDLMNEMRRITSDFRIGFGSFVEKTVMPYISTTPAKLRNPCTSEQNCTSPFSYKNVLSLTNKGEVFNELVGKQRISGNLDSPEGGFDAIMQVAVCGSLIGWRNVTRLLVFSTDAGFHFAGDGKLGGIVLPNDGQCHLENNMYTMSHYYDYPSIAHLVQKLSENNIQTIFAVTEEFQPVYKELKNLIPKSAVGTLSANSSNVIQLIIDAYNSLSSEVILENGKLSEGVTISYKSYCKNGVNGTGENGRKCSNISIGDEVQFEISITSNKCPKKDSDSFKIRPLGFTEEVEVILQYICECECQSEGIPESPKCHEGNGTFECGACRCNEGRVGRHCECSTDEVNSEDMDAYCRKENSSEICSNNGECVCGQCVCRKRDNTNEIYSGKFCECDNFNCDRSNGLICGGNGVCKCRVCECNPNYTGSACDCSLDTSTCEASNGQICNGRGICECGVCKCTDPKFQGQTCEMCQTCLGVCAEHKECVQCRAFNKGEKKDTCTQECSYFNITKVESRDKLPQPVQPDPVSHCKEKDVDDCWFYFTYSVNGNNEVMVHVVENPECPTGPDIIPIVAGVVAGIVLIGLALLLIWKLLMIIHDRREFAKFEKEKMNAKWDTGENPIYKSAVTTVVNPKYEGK
Protocol: as §1

α2β1 integrin receptors = target: T2, α2β1 integrin receptors (Homo sapiens, UniProt P05556+P17301); assay: PFA-100 platelet function analysis, whole blood closure time; format: cell-based; conditions: Collagen/ADP cartridges, vs untreated control
T2 construct: endogenous in cells; host or cells: platelets in anticoagulated whole blood of healthy donors
T2 sequence (P17301 30-1181): as the sequence (P17301 30-1181) above
T2 sequence (P05556 21-798): as the sequence (P05556 21-798 partner) above
Protocol: The responsiveness of the genotyped healthy volunteers to a treatment involving the blockade of α2β1 integrin receptors was assessed by measuring the effect of synthetic α2β1 integrin inhibitors, such as sulphonamide derivatives disclosed e.g. in WO 2005/090298, on whole blood closure time in PFA-100 platelet function analysis. The PFA-100 analyzer is a high shear-inducing device that simulates primary haemostasis after injury of a small vessel. The system comprises a test-cartridge containing a biologically active membrane coated with collagen plus adenosine diphosphate (ADP). An anticoaculated whole blood sample is run through a capillary under a constant vacuum. […] Synthetic α2β1 integrin inhibitor was added to the whole blood sample obtained from each healthy volunteer, and the closure time was measured with PFA-100. […]
The effect of a synthetic α2β1 integrin inhibitor, sodium salt of 4-({[3-(4-fluorophenyl)phenyl]sulfonyl}amino)phenyl phenyl ketone (BTT-3016), on whole blood closure time in PFA-100 analysis was determined for donors representing each genotypic population. […] Samples were incubated at room temperature for 10 min., dispensed into PFA Collagen/ADP cartridges, and closure time was determined with PFA-100 (Dade Behring).

Row | binding of labeled compound in the presence of EDTA [1] | binding of labeled compound in the presence of EDTA ([1]; listed as C^u-labeled integrin inhibitor) | SMILES | binding of labeled compound in the presence of EDTA (CHO-wt cells) | binding of labeled compound to cells ([1]; 10 μM C^14-labeled compound, 1 h, +4° C, CHO-α2 compared with CHO-wt) | effect on whole blood closure time (α2β1 integrin receptors; donors with high α2β1 expression (MEF≧35), genotype TT807 or CT807) | effect on whole blood closure time (α2β1 integrin receptors; donors with low integrin expression, genotype CC807)
1 | could be inhibited | EDTA inhibits the binding | CN(C)c1ccc(NCS(=O)(=O)c2cccc(-c3ccc(F)cc3)c2)cc1 [[4-(dimethylamino)phenyl]{[3-(4-fluorophenyl)phenyl]-sulfonyl}methylamine] | not to CHO-wild type (wt) cells | bound more efficiently to CHO-α2 cells than to CHO-wt cells | – | –
2 | – | – | O=C(c1ccccc1)c1ccc(NS(=O)(=O)c2cccc(-c3ccc(F)cc3)c2)cc1 [BTT-3016, 4-({[3-(4-fluorophenyl)phenyl]sulfonyl}amino)phenyl phenyl ketone] | – | – | increases the blood closure time; also recorded: increase the closure time statistically significantly | non-responsive; also recorded: not efficacious
